Measured values published in patent US12110295B2, “WD40 repeat domain protein 5 (WDR5) degradation/disruption compounds and methods of use” (Icahn School of Medicine at Mount Sinai, priority 2018, dated 2024).

target: WDR5 (Homo sapiens, UniProt P61964); experiment: Screening of putative WDR5 degraders by Western blot in MV4;11 and/or MIAPACA2 cells; assay type: cell-based; set-up: After WDR5 degrader treatment, cells were collected and lysed; endogenous in cells; host or cells: MV4;11 and/or MIAPACA2; conditions: summary of screening, FIGS. 6-10
Outline: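 MV4;11 (1×10^6/well) or MIAPACA2 (1×10^5/well) cells treated 18 h with compound at paired doses between 0.1 and 10 μM, DMSO as control. Total lysates immunoblotted for WDR5 with vinculin, tubulin or GAPDH loading controls; fluorescent secondary detection.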

| effective degradation of WDR5 in MV4;11 and/or MIAPACA2 cells | SMILES |
| --- | --- |
| able to effectively degrade WDR5 | Cc1ncsc1-c1ccc(CNC(=O)[C@@H]2C[C@@H](O)CN2C(=O)[C@@H](NC(=O)CCC(=O)N2CCN(Cc3cnc(N4CC=C(c5cc(NC(=O)c6c[nH]c(=O)cc6C(F)(F)F)c(N6C[C@@H](C)N(C)[C@@H](C)C6)cc5F)CC4)nc3)CC2)C(C)(C)C)cc1 [XF078-141, N-(4-fluoro-5-(1-(5-((4-(4-(((S)-1-((2S,4R)-4-hydroxy-2-((4-(4-methylthiazol-5-yl)benzyl)carbamoyl)pyrrolidin-1-yl)-3,3-dimethyl-1-oxobutan-2-yl)amino)-4-oxobutanoyl)piperazin-1-yl)methyl)pyrimidin-2-yl)-1,2,3,6-tetrahydropyridin-4-yl)-2-((3S,5R)-3,4,5-trimethylpiperazin-1-yl)phenyl)-6-oxo-4-(trifluoromethyl)-1,6-dihydropyridine-3-carboxamide] |
| able to effectively degrade WDR5 | Cc1ncsc1-c1ccc(CNC(=O)[C@@H]2C[C@@H](O)CN2C(=O)[C@@H](NC(=O)CCOCCOCCOCCC(=O)NCCN2CCN(Cc3ccc(F)c(-c4ccc(N5C[C@@H](C)N(C)[C@@H](C)C5)c(NC(=O)c5c[nH]c(=O)cc5C(F)(F)F)c4)c3)CC2)C(C)(C)C)cc1 [XF078-6, N-(2′-fluoro-5′-((4-((S)-18-((2S,4R)-4-hydroxy-2-((4-(4-methylthiazol-5-yl)benzyl)carbamoyl)pyrrolidine-1-carbonyl)-19,19-dimethyl-4,16-dioxo-7,10,13-trioxa-3,17-diazaicosyl)piperazin-1-yl)methyl)-4-((3S,5R)-3,4,5-trimethylpiperazin-1-yl)-[1,1′-biphenyl]-3-yl)-6-oxo-4-(trifluoromethyl)-1,6-dihydropyridine-3-carboxamide] |
| able to effectively degrade WDR5 | C[C@@H]1CN(c2ccc(-c3cc(CN4CCN(CCNC(=O)CCCCCNc5cccc6c5C(=O)N(C5CCC(=O)NC5=O)C6=O)CC4)ccc3F)cc2NC(=O)c2c[nH]c(=O)cc2C(F)(F)F)C[C@H](C)N1C (stereo partly drawn) [XF078-22, N-(5′-((4-(2-(6-((2-(2,6-dioxopiperidin-3-yl)-1,3-dioxoisoindolin-4-yl)amino)hexanamido)ethyl)piperazin-1-yl)methyl)-2′-fluoro-4-((3S,5R)-3,4,5-trimethylpiperazin-1-yl)-[1,1′-biphenyl]-3-yl)-6-oxo-4-(trifluoromethyl)-1,6-dihydropyridine-3-carboxamide] |
| able to effectively degrade WDR5 | Cc1ncsc1-c1ccc(CNC(=O)[C@@H]2C[C@@H](O)CN2C(=O)[C@@H](NC(=O)CCOCCOCCOCCOCCNC(=O)CCC(=O)N2CCN(c3ccc(-c4cc(NC(=O)c5c[nH]c(=O)cc5C(F)(F)F)c(N5C[C@@H](C)N(C)[C@@H](C)C5)cc4F)cn3)CC2)C(C)(C)C)cc1 [XF067-146, N-(4-fluoro-5-(6-(4-((S)-3-((2S,4R)-4-hydroxy-2-((4-(4-methylthiazol-5-yl)benzyl)carbamoyl)pyrrolidine-1-carbonyl)-2,2-dimethyl-5,21-dioxo-8,11,14,17-tetraoxa-4,20-diazatetracosan-24-oyl)piperazin-1-yl)pyridin-3-yl)-2-((3S,5R)-3,4,5-trimethylpiperazin-1-yl)phenyl)-6-oxo-4-(trifluoromethyl)-1,6-dihydropyridine-3-carboxamide] |
| able to effectively degrade WDR5 | Cc1ncsc1-c1ccc(CNC(=O)[C@@H]2C[C@@H](O)CN2C(=O)[C@@H](NC(=O)CCCCCCCCC(=O)N2CCN(Cc3cnc(N4CC=C(c5cc(NC(=O)c6c[nH]c(=O)cc6C(F)(F)F)c(N6C[C@@H](C)N(C)[C@@H](C)C6)cc5F)CC4)nc3)CC2)C(C)(C)C)cc1 [XF078-147, N-(4-fluoro-5-(1-(5-((4-(10-(((S)-1-((2S,4R)-4-hydroxy-2-((4-(4-methylthiazol-5-yl)benzyl)carbamoyl)pyrrolidin-1-yl)-3,3-dimethyl-1-oxobutan-2-yl)amino)-10-oxodecanoyl)piperazin-1-yl)methyl)pyrimidin-2-yl)-1,2,3,6-tetrahydropyridin-4-yl)-2-((3S,5R)-3,4,5-trimethylpiperazin-1-yl)phenyl)-6-oxo-4-(trifluoromethyl)-1,6-dihydropyridine-3-carboxamide] |
| able to effectively degrade WDR5 | C[C@@H]1CN(c2ccc(-c3cc(CN4CCN(CCNC(=O)CCOCCNc5cccc6c5C(=O)N(C5CCC(=O)NC5=O)C6=O)CC4)ccc3F)cc2NC(=O)c2c[nH]c(=O)cc2C(F)(F)F)C[C@H](C)N1C (stereo partly drawn) [XF078-25, N-(5′-((4-(2-(3-(2-((2-(2,6-dioxopiperidin-3-yl)-1,3-dioxoisoindolin-4-yl)amino)ethoxy)propanamido)ethyl)piperazin-1-yl)methyl)-2′-fluoro-4-((3S,5R)-3,4,5-trimethylpiperazin-1-yl)-[1,1′-biphenyl]-3-yl)-6-oxo-4-(trifluoromethyl)-1,6-dihydropyridine-3-carboxamide] |
| able to effectively degrade WDR5 | Cc1ncsc1-c1ccc(CNC(=O)[C@@H]2C[C@@H](O)CN2C(=O)[C@@H](NC(=O)CCCCCCCNC(=O)c2ccc(-c3ccc(N4C[C@@H](C)N(C)[C@@H](C)C4)c(NC(=O)c4c[nH]c(=O)cc4C(F)(F)F)c3)c(F)c2)C(C)(C)C)cc1 [XF056-171, N-(2′-fluoro-4′-((8-(((S)-1-((2S,4R)-4-hydroxy-2-((4-(4-methylthiazol-5-yl)benzyl)carbamoyl)pyrrolidin-1-yl)-3,3-dimethyl-1-oxobutan-2-yl)amino)-8-oxooctyl)carbamoyl)-4-((3R,5S)-3,4,5-trimethylpiperazin-1-yl)-[1,1′-biphenyl]-3-yl)-6-oxo-4-(trifluoromethyl)-1,6-dihydropyridine-3-carboxamide] |
| able to effectively degrade WDR5 | Cc1ncsc1-c1ccc(CNC(=O)[C@@H]2C[C@@H](O)CN2C(=O)[C@@H](NC(=O)COCC(=O)NCCN2CCN(Cc3ccc(F)c(-c4ccc(N5C[C@@H](C)N(C)[C@@H](C)C5)c(NC(=O)c5c[nH]c(=O)cc5C(F)(F)F)c4)c3)CC2)C(C)(C)C)cc1 [XF078-1, N-(2′-fluoro-5′-((4-(2-(2-(2-(((S)-1-((2S,4R)-4-hydroxy-2-((4-(4-methylthiazol-5-yl)benzyl)carbamoyl)pyrrolidin-1-yl)-3,3-dimethyl-1-oxobutan-2-yl)amino)-2-oxoethoxy)acetamido)ethyl)piperazin-1-yl)methyl)-4-((3S,5R)-3,4,5-trimethylpiperazin-1-yl)-[1,1′-biphenyl]-3-yl)-6-oxo-4-(trifluoromethyl)-1,6-dihydropyridine-3-carboxamide] |
| able to effectively degrade WDR5 | Cc1ncsc1-c1ccc(CNC(=O)[C@@H]2C[C@@H](O)CN2C(=O)[C@@H](NC(=O)CCCC(=O)N2CCN(Cc3cnc(N4CC=C(c5cc(NC(=O)c6c[nH]c(=O)cc6C(F)(F)F)c(N6C[C@@H](C)N(C)[C@@H](C)C6)cc5F)CC4)nc3)CC2)C(C)(C)C)cc1 [XF078-142, N-(4-fluoro-5-(1-(5-((4-(5-(((S)-1-((2S,4R)-4-hydroxy-2-((4-(4-methylthiazol-5-yl)benzyl)carbamoyl)pyrrolidin-1-yl)-3,3-dimethyl-1-oxobutan-2-yl)amino)-5-oxopentanoyl)piperazin-1-yl)methyl)pyrimidin-2-yl)-1,2,3,6-tetrahydropyridin-4-yl)-2-((3S,5R)-3,4,5-trimethylpiperazin-1-yl)phenyl)-6-oxo-4-(trifluoromethyl)-1,6-dihydropyridine-3-carboxamide] |
